Data on six molecules can be found in patent publication US9963455B2, “Pyrazolo[1,5-a]pyrimidines as antiviral compounds” (Curovir AB, priority 2014, dated 2018).

One data set concerns Ljungan virus strain 012. In words: CPE inhibition in mammalian cell culture, LV012. In kind it is cell-based. The note with it: Parechovirus B, read-out: antiviral effect, LV012; for inhibition at 10 µM: Conc. 10 µM.
A further data set relates to Ljungan virus strain 145. Nature of the data set: CPE inhibition in mammalian cell culture, LV145. Details: inhibition: dose or concentration left out as unconfirmed. The format is cell-based. The note with it: Parechovirus B; for inhibition: Conc.
The subject of data set [1] is encephalomyocarditis virus. Nature of the data set: CPE inhibition in mammalian cell culture, EMCV. Details: inhibition: dose or concentration left out as unconfirmed. In kind it is cell-based. The note with it: Cardiovirus A, read-out: antiviral effect, EMCV; for inhibition: Conc.
The subject of data set [2] is Human parechovirus strain 1. Nature of the data set: CPE inhibition in mammalian cell culture, HPeV-1. The format is cell-based. The settings on record: Parechovirus A, read-out: antiviral effect, HPeV-1; for inhibition at 10 µM: Conc. 10 µM.
The next data set deals with Porcine Tescho virus. In words: microbe, parasite or virus in culture. The note with it: Conc.; read-out: antiviral effect, PTV. The format is cell-based. Details: dose or concentration left out as unconfirmed.
Another data set relates to Enterovirus strain 30. Nature of the data set: CPE inhibition in mammalian cell culture, EV30. The settings on record: read-out: antiviral effect, EV30; for inhibition at 10 µM: Conc. 10 µM. The format is cell-based.
In a further data set the test system is Enterovirus strain 71. In words: CPE inhibition in mammalian cell culture, EV71. In kind it is cell-based. Also noted: inhibition: dose or concentration left out as unconfirmed. The note with it: for inhibition: Conc.
The subject of data set [3] is coxsackie B virus strain 1. In words: CPE inhibition in mammalian cell culture, Cox-B1. The format is cell-based. Details: inhibition: dose or concentration left out as unconfirmed.
The subject of data set [4] is coxsackie B virus strain 2. Nature of the data set: CPE inhibition in mammalian cell culture, Cox-B2. In kind it is cell-based. Also noted: inhibition: dose or concentration left out as unconfirmed. The note with it: read-out: antiviral effect, B2.
Data set [5] has as its system coxsackie B virus strain 4. Nature of the data set: CPE inhibition in mammalian cell culture, Cox-B4. In kind it is cell-based. Also noted: inhibition: dose or concentration left out as unconfirmed. The note with it: read-out: antiviral effect, B4.
Data set [6] deals with coxsackie B virus strain 5. Nature of the data set: CPE inhibition in mammalian cell culture, Cox-B5. In kind it is cell-based. Details: inhibition: dose or concentration left out as unconfirmed. The settings on record: read-out: antiviral effect, B5.
For another data set, the system named is polio virus strain 1. Nature of the data set: microbe, parasite or virus in culture. The format is cell-based. Also noted: inhibition: dose or concentration left out as unconfirmed. The note with it: read-out: antiviral effect, Polio 1.
The test system of a further data set is Theiler. Nature of the data set: CPE inhibition in mammalian cell culture, Theiler. The format is cell-based. The note with it: Conc. 10 μM.
The test system of data set [7] is Coxsackie B3 virus, Nancy strain. In words: Anti-viral efficacy against Coxsackie virus in a neutropenic mouse model. The settings on record: neutropenic BALB/c mice, Coxsackie B3 i.p., 200 mg/kg once daily per orally from day 1 or day 3. In kind it is in vivo, Male BALB/c mice. Here is the method: The FIGURE is a diagram showing the number of surviving animals as a function of the number of days after infections with Coxsackie B3 virus, in mice treated with the compound of Ex. 9, 200 mg/kg once daily per orally starting on day 1 (group 1) or on day 3 (group 2), and in mice treated with vehicle only (0.4% Tween 80, 2% glycerol and 15% β-hydroxypropyl cyclodextrin).
Evaluation of Anti-Viral Efficacy Against Coxsackie Virus in a Neutropenic Mouse Model Test System Male BALB/c mice, weighing 22-26 grams were used with 4 animals/group. Neutropenic induction: Cyclophosphamide Challenge organism: Coxsackie (human origin) virus CVB3 Route of infection: Intraperitoneal Route of administration: per oral End point: Cumulative survival
All experimental procedures involving animals were performed according to protocols approved by the Institutional Animal Ethics Committee of Anthem Biosciences. The mice, male BALB/c mice were housed 4 animals per cage and allowed access to feed and water ad libitum under controlled conditions. Mice were acclimatized for 7 days prior to the study. The animals were observed daily for general health during this period. […]
The animals were observed daily during the study period for signs of mortality, morbidity (paralysis) and signs of acute toxicity. Abnormal clinical signs were recorded if observed.

The conditions of data set [8]: female Sprague Dawley rats, single dose.
For data set [9] the following is noted: Sprague Dawley rats, 250 and 750 mg/kg body weight/day for 7 days.
In data set [10] the test system is coxsackie B virus strain 3. In words: CPE inhibition in mammalian cell culture, Cox-B3. In kind it is cell-based. Details: inhibition: dose or concentration left out as unconfirmed. The settings on record: read-out: antiviral effect, B3.
The next data set deals with Enterovirus strain 6. In words: microbe, parasite or virus in culture. In kind it is cell-based. Also noted: inhibition: dose or concentration left out as unconfirmed. The note with it: read-out: antiviral effect, EV6.
The subject of another data set is EV68. In words: CPE inhibition in mammalian cell culture, EV68. The settings on record: Conc. 0.1 (unit uncertain). Details: antiviral effect, EV68: unit of the concentration uncertain. In kind it is cell-based.
Setting [11] is: read-out: antiviral effect, LV145.
The mark [12] stands for this setting: read-out: antiviral effect, EV71.

On to `COc1ccc(-c2c(C)nn3c(NCc4ccc(C)cc4)cc(C)nc23)cc1OC` [Ex. 6, 3-(3,4-dimethoxyphenyl)-2,5-dimethyl-N-(p-tolylmethyl)pyrazolo[1,5-a]pyrimidin-7-amine], for which the inhibition at 10 µM with Ljungan virus strain 012 was 28%; in data set [2], 60%; in the data set on Enterovirus strain 30 it was 44%. Also, the inhibition stood at 63% with Ljungan virus strain 145 (setting [11]), 0% in [1], 62% with Porcine Tescho virus and 37% in the data set on Enterovirus strain 71 (setting [12]). Further, the inhibition at 5 µM in the data set on Ljungan virus strain 145 (LV145, Conc. 5.0 μM) was 56%. Further, the inhibition at 10000 µM was 35% in data set [3] (read-out: antiviral effect, B1); 82% in data set [4]; 69% in data set [5]; 54% in [6]; 19% in the data set with polio virus strain 1.
The molecule `Cc1cc(NCc2ccc(F)cc2)n2nc(C)c(-c3ccc(C(F)(F)F)cc3)c2n1` [Ex. 104, N-[(4-fluorophenyl)methyl]-2,5-dimethyl-3-[4-(trifluoromethyl)phenyl]pyrazolo[1,5-a]pyrimidin-7-amine] yielded an inhibition at 10 µM in the data set with Theiler of 59%.
As to `COc1ccc(-c2c(C)nn3c(NCc4ccc(F)cc4)cc(C)nc23)cc1OC` [Ex. 9, 3-(3,4-dimethoxyphenyl)-N-[(4-fluorophenyl)methyl]-2,5-dimethyl-pyrazolo[1,5-a]pyrimidin-7-amine], the results for the inhibition at 10 µM (in the data set with Ljungan virus strain 012; in data set [2]; in the data set with Enterovirus strain 30) were 18%, 19% and 35%, respectively. In addition, the inhibition in the data set on Ljungan virus strain 145 (setting [11]) stood at 59%; in data set [1], 14%; with Porcine Tescho virus, 23%; in the data set with Enterovirus strain 71 (setting [12]) it was 16%. In the data set on Enterovirus strain 71 (EV71, Conc. 0.25 μM), this molecule showed an inhibition at 0.25 µM of 93%. Further, the inhibition at 10000 µM in data set [3] (read-out: antiviral effect, B1) worked out at 53%; in data set [4], 76%; in data set [5] it was 48%; in [6], 73%; in the data set with polio virus strain 1 it was 91%. Moreover, the Cumulative survival result in data set [7] was “has an antiviral effect in vivo and can extend the life of the animals”. The “adverse clinical signs or mortality” value (BALB/C mice, 200 and 400 mg/kg body weight/day for 7 days) is reported as “did not reveal any adverse clinical signs or mortality”. The “No Observed Adverse Effect Level (NOAEL)” value (mouse, in vivo, po) is given as 400 mg/kg body weight/day. In [8], the maximum tolerable dose is reported as > 2000 mg/kg body weight. Further, the “adverse clinical signs and mortality” value in data set [9] is “adverse clinical signs in both sexes at 750 mg/kg and mortality in one female at 750 mg/kg”.
With `COc1ccc(-c2c(C)nn3c(NCC(C)c4ccccc4)cc(C)nc23)cc1OC` (stereo not shown) [Ex. 10, 3-(3,4-dimethoxyphenyl)-2,5-dimethyl-N-(2-phenylpropyl)pyrazolo[1,5-a]pyrimidin-7-amine], the inhibition at 10 µM in the data set with Ljungan virus strain 012 turned out to be 0%; in data set [2] it was 3%; in the data set on Enterovirus strain 30, 88%. In addition, the inhibition was 41% with Ljungan virus strain 145 (setting [11]), 25% in [1], 43% in the data set with Porcine Tescho virus and 58% in the data set on Enterovirus strain 71 (setting [12]). Moreover, the inhibition at 2.5 µM with Ljungan virus strain 145 (LV145, Conc. 2.5 μM) amounted to 69%. The inhibition at 10000 µM amounted to 79% in [3] (read-out: antiviral effect, B1); 97% in [4]; 94% in [5]; 92% in [6].
Turning to `CC(C)c1cc(NCc2ccccc2)n2ncc(-c3ccccc3)c2n1` [Ex. 4, N-benzyl-5-isopropyl-3-phenyl-pyrazolo[1,5-a]pyrimidin-7-amine], the inhibition at 10 µM with Ljungan virus strain 012 amounted to 28%; in data set [2], 7%; in the data set on Enterovirus strain 30, 0%. The inhibition with Ljungan virus strain 145 (setting [11]) turned out to be 61%; in data set [1], 81%; in the data set on Porcine Tescho virus it was 87%; in the data set on Enterovirus strain 71 (setting [12]) it was 69%. The inhibition at 2.5 µM in the data set with Enterovirus strain 71 (EV71, Conc. 2.5 μM) was determined as 46%. Besides, the inhibition at 10000 µM stood at 36% in data set [3] (read-out: antiviral effect, B1); 0% in data set [4]; 0% in data set [10]; 53% in data set [5]; 0% in data set [6]; 17% in the data set with polio virus strain 1.
On to `COc1ccc(-c2c(C)nn3c(NCc4ccc(O)cc4)cc(C)nc23)cc1OC` [Ex. 81, 4-[[[3-(3,4-dimethoxyphenyl)-2,5-dimethyl-pyrazolo[1,5-a]pyrimidin-7-yl]amino]methyl]phenol], for which the inhibition at 100 µM in the data set with Ljungan virus strain 012 (Conc. 0.1 mM) was determined as 0%; in the data set on Ljungan virus strain 145 (Conc. 0.1 mM, read-out: antiviral effect, LV145), 0%; in data set [1] (Conc. 0.1 mM) it was 0%; in data set [2] (Conc. 0.1 mM), 0%; with Enterovirus strain 30 (Conc. 0.1 mM), 97%; in the data set with Enterovirus strain 71 (Conc. 0.1 mM, read-out: antiviral effect, EV71), 86%. Moreover, the inhibition stood at 62% in the data set on Enterovirus strain 6; 85% in data set [3] (read-out: antiviral effect, B1); 88% in data set [4]; 87% in data set [10]; 77% in [5]; 81% in [6]. The inhibition with polio virus strain 1 turned out to be 89%. Besides, in the data set with EV68, the “antiviral effect, EV68” value was 29%. Further, the inhibition at 0.01 µM in data set [3] (read-out: % inh.) was 76%.
